Experimental data taken from article PMC4216211 (Journal of Medicinal Chemistry, 2014).
“And” between values parts separate entries of the source, which are not always exact repeats. Equal entries are not always repeated.

What was measured:
TSPO in rat brain cortex = conditions: read-out: IC50, inhibition of [3H]1; cited from earlier work
rat brain TSPO = rat brain TSPO (Rattus norvegicus, UniProt P16257); assay type: binding; conditions: for LipE: pKi (rat) minus clogD
human leukocyte LAB TSPO = human leukocyte LAB TSPO (Homo sapiens, UniProt P30536); experiment: Ligand binding affinity to human leukocyte LAB TSPO
Chain of human leukocyte LAB TSPO (P30536 whole entry): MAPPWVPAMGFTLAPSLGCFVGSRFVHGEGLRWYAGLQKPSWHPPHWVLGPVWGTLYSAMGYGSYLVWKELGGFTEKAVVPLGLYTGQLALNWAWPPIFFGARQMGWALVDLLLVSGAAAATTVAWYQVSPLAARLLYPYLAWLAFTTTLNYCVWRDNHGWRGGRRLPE

[1] = tested on: human leukocyte HAB and LAB TSPO; experiment: Human TSPO genotype sensitivity, Ki in LAB versus HAB leukocytes; assay type: binding; conditions: for (LAB Ki)/(HAB Ki): genotype sensitivity, ratio of Ki; for genotype sensitivity in words: LAB versus HAB TSPO
human leukocyte HAB TSPO = human leukocyte HAB TSPO (Homo sapiens, UniProt P30536, T147A); experiment: Ligand binding affinity to human leukocyte HAB TSPO
Chain of human leukocyte HAB TSPO (P30536 whole entry T147A): as the sequence (P30536 whole entry) above, with T147A counted along it

Chain of rat brain TSPO (P16257 whole entry): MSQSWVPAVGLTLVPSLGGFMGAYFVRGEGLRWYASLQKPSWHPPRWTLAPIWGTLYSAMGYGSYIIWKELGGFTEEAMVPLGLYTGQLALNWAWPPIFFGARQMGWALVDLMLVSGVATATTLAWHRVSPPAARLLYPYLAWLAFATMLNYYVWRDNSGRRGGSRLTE

SMILES | Ki (rat brain TSPO) | LipE (rat brain TSPO) | Ki (human leukocyte LAB TSPO) | (LAB Ki)/(HAB Ki) [1] | Ki (human leukocyte HAB TSPO) | also measured
CCN(CC)C(=O)C(C)Cc1cc(-c2ccccc2)nc2ccccc12 (stereo not shown) [10a, N,N-Diethyl-2-methyl-3-(2-phenylquinolin-4-yl)propanamide] | 2.1 ± 0.6 nM | 4.4 ± 0.1 |  |  |  | IC50 (TSPO in rat brain cortex): 13.7 nM
CCN(CC)C(=O)CCc1cc(-c2ccccc2)nc2ccccc12 [10b, N,N-diethyl-3-(2-phenylquinolin-4-yl)propanamide] | 32 ± 11 nM | 2.7 ± 0.2 |  |  |  | 
CCC(Cc1cc(-c2ccccc2)nc2ccccc12)C(=O)N(CC)CC (stereo not shown) [10c, N,N-diethyl-2-[(2-phenylquinolin-4-yl)methyl]butanamide] | 14 ± 6 nM | 2.6 ± 0.2 |  |  |  | 
CN1CCC(Cc2cc(-c3ccccc3)nc3ccccc23)C1=O (stereo not shown) [10d, 1-methyl-3-[(2-phenylquinolin-4-yl)methyl]pyrrolidin-2-one] | 53 ± 22 nM | 3.6 ± 0.2 |  |  |  | 
CC(Cc1cc(-c2ccccc2)nc2ccccc12)C(=O)N(C)C (stereo not shown) [10e, N,N,2-trimethyl-3-(2-phenylquinolin-4-yl)propanamide] | 40 ± 8 nM | 2.8 ± 0.1 |  |  |  | 
CCN(C)C(=O)C(C)Cc1cc(-c2ccccc2)nc2ccccc12 (stereo not shown) [10f, N-ethyl-N,2-dimethyl-3-(2-phenylquinolin-4-yl)propanamide] | 9 ± 2 nM | 3.8 ± 0.1 |  |  |  | 
CCCN(C)C(=O)C(C)Cc1cc(-c2ccccc2)nc2ccccc12 (stereo not shown) [10g, N,2-dimethyl-3-(2-phenylquinolin-4-yl)-N-propylpropanamide] | 1.2 ± 0.4 nM | 4.2 ± 0.1 |  |  |  | 
CCCCN(C)C(=O)C(C)Cc1cc(-c2ccccc2)nc2ccccc12 (stereo not shown) [10h, N-butyl-N,2-dimethyl-3-(2-phenylquinolin-4-yl)propanamide] | 0.4 ± 0.2 nM | 3.9 ± 0.2 | 89 ± 3 nM | 89 ± 50 | 1 ± 0.6 nM | 
CCCCCN(C)C(=O)C(C)Cc1cc(-c2ccccc2)nc2ccccc12 (stereo not shown) [10i, N,2-dimethyl-N-pentyl-3-(2-phenylquinolin-4-yl)propanamide] | 0.6 ± 0.1 nM | 2.6 ± 0.1 |  |  |  | 
CC(Cc1cc(-c2ccccc2)nc2ccccc12)C(=O)N(C)C(C)C (stereo not shown) [10j, N,2-dimethyl-3-(2-phenylquinolin-4-yl)-N-(propan-2-yl)propanamide] | 2.9 ± 0.9 nM | 4.3 ± 0.1 | 973 ± 409 nM | 64 ± 28 | 15 ± 2 nM | 
CC(C)CN(C)C(=O)C(C)Cc1cc(-c2ccccc2)nc2ccccc12 (stereo not shown) [10l, N,2-dimethyl-N-(2-methylpropyl)-3-(2-phenylquinolin-4-yl)propanamide] | 5 ± 2 nM | 3.3 ± 0.1 | 185 ± 81 nM | 32 ± 18 | 6 ± 2 nM | 
CC(Cc1cc(-c2ccccc2)nc2ccccc12)C(=O)N(C)c1ccccc1 (stereo not shown) [10m, N,2-dimethyl-N-phenyl-3-(2-phenylquinolin-4-yl)propanamide] | 0.9 ± 0.2 nM | 3.5 ± 0.1 | 53 ± 22 nM | 27 ± 14 | 1.9 ± 0.5 nM | 
CC(Cc1cc(-c2ccccc2)nc2ccccc12)C(=O)N(C)Cc1ccccc1 (stereo not shown) [10n, N-benzyl-N,2-dimethyl-3-(2-phenylquinolin-4-yl)propanamide] | 5 ± 3 nM | 1.8 ± 0.2 |  |  |  | 
CC(Cc1cc(-c2ccccc2)nc2ccccc12)C(=O)N(C)c1ccccn1 (stereo not shown) [10o, N,2-dimethyl-3-(2-phenylquinolin-4-yl)-N-(pyridin-2-yl)propanamide] | 1.6 ± 0.6 nM | 3.6 ± 0.2 | 119 ± 56 nM | 30 ± 18 | 4 ± 1 nM | 
CC(Cc1cc(-c2ccccc2)nc2ccccc12)C(=O)N(C)c1cccnc1 (stereo not shown) [10p, N,2-dimethyl-3-(2-phenylquinolin-4-yl)-N-(pyridin-3-yl)propanamide] | 10 ± 3 nM | 2.7 ± 0.1 |  |  |  | 
CC(Cc1cc(-c2ccccc2)nc2ccccc12)C(=O)N(C)c1ccncc1 (stereo not shown) [10q, N,2-dimethyl-3-(2-phenylquinolin-4-yl)-N-(pyridin-4-yl)propanamide] | 106 ± 24 nM | 1.7 ± 0.1 |  |  |  | 
CC(Cc1cc(-c2ccccc2)nc2ccccc12)C(=O)N(C)c1ccccc1F (stereo not shown) [10r, N-(2-fluorophenyl)-N,2-dimethyl-3-(2-phenylquinolin-4-yl)propanamide] | 0.9 ± 0.2 nM | 3.5 ± 0.1 |  |  |  | 
CC(Cc1cc(-c2ccccc2)nc2ccccc12)C(=O)N(C)c1cccc(F)c1 (stereo not shown) [10s, N-(3-fluorophenyl)-N,2-dimethyl-3-(2-phenylquinolin-4-yl)propanamide] | 0.8 ± 0.2 nM | 3.5 ± 0.1 |  |  |  | 
CC(Cc1cc(-c2ccccc2)nc2ccccc12)C(=O)N(C)c1ccc(F)cc1 (stereo not shown) [10t, N-(4-fluorophenyl)-N,2-dimethyl-3-(2-phenylquinolin-4-yl)propanamide] | 0.4 ± 0.1 nM | 4.1 ± 0.2 |  |  |  | 
CC(Cc1cc(-c2ccccc2Cl)nc2ccccc12)C(=O)N(C)C(C)C (stereo not shown) [10u, 3-[2-(2-chlorophenyl)quinolin-4-yl)-N,2-dimethyl-N-(propan-2-yl)propanamide] | 22 ± 6 nM | 3.2 ± 0.1 |  |  |  | 
CC(Cc1cc(-c2cccc(Cl)c2)nc2ccccc12)C(=O)N(C)C(C)C (stereo not shown) [10v, 3-[2-(3-chlorophenyl)quinolin-4-yl)-N,2-dimethyl-N-(propan-2-yl)propanamide] | 4 ± 1 nM | 3.7 ± 0.1 |  |  |  | 
CC(Cc1cc(-c2ccc(Cl)cc2)nc2ccccc12)C(=O)N(C)C(C)C (stereo not shown) [10w, 3-[2-(4-chlorophenyl)quinolin-4-yl)-N,2-dimethyl-N-(propan-2-yl)propanamide] | 4 ± 1 nM | 3.6 ± 0.1 |  |  |  | 
CCC(C)N(C)C(=O)c1cc2ccccc2c(-c2ccccc2Cl)n1 (stereo not shown) [compound 1, 1-(2-chlorophenyl)-N-methyl-N-(1-methylpropyl)-3-isoquinolinecarboxamide, reference compound] |  |  |  |  |  | genotype sensitivity in words [1]: low genotype sensitivity

Continued, in another order:

Ki (rat brain TSPO) | LipE (rat brain TSPO) | Ki (human leukocyte LAB TSPO) | (LAB Ki)/(HAB Ki) [1] | Ki (human leukocyte HAB TSPO) | SMILES | also measured
0.07 ± 0.004 nM | 5.42 ± 0.03 | 1.3 ± 0.2 nM | 2.5 and 2.5 ± 0.9 | 0.5 ± 0.2 nM | CC(Oc1cc(-c2ccccc2)nc2ccccc12)C(=O)N(C)c1ccccc1 (stereo not shown) [15a, N-Methyl-N-phenyl-2-[(2-phenylquinolin-4-yl)oxy]propanamide] | 
5.7 ± 0.5 nM | 5.29 ± 0.04 | 66 ± 22 nM | 20 ± 9 | 3.3 ± 0.9 nM | CC(Oc1ccnc2ccccc12)C(=O)N(C)c1ccccc1 (stereo not shown) [15b, N-methyl-N-phenyl-2-(quinolin-4-yloxy)propanamide] | rat TSPO affinity in words (rat brain TSPO): low nanomolar range; HAB binding affinity in words (human leukocyte HAB TSPO): low nanomolar
3.3 ± 0.6 nM | 5.3 ± 0.3 | 62 ± 11 nM | 31 ± 11 | 2 ± 0.6 nM | CC(Oc1ccnc(-c2ccccc2)c1)C(=O)N(C)c1ccccc1 (stereo not shown) [15c, N-methyl-N-phenyl-2-[(2-phenylpyridin-4-yl)oxy]propanamide] | rat TSPO affinity in words (rat brain TSPO): low nanomolar range; HAB binding affinity in words (human leukocyte HAB TSPO): low nanomolar
0.1 ± 0.05 nM | 5.9 ± 0.2 | 1.4 ± 0.5 nM | 1.0 ± 0.4 | 1.4 ± 0.2 nM | CC(Oc1cc(-c2ccccn2)nc2ccccc12)C(=O)N(C)c1ccccc1 (stereo not shown) [22a, N-Methyl-N-phenyl-2-{[2-(pyridin-2-yl)quinolin-4-yl]oxy}propanamide] | genotype sensitivity in words [1]: insensitive; Ki ([1]; read-out: human TSPO genotypes Ki, abstract, one value for the human genotypes): 1.4 nM
0.2 ± 0.03 nM | 5.6 ± 0.1 | 12 ± 3 nM | 13 ± 4 | 0.9 ± 0.09 nM | CC(Oc1cc(-c2cccnc2)nc2ccccc12)C(=O)N(C)c1ccccc1 (stereo not shown) [22b, N-methyl-N-phenyl-2-{[2-(pyridin-3-yl)quinolin-4-yl]oxy}propanamide] | rat TSPO affinity in words (rat brain TSPO): subnanomolar
0.22 ± 0.02 nM | 5.60 ± 0.04 | 7 ± 3 nM | 7 ± 5 | 1 ± 0.5 nM | CC(Oc1cc(-c2ccncc2)nc2ccccc12)C(=O)N(C)c1ccccc1 (stereo not shown) [22c, N-methyl-N-phenyl-2-{[2-(pyridin-4-yl)quinolin-4-yl]oxy}propanamide] | genotype sensitivity in words [1]: much less sensitive
0.9 ± 0.09 nM | 4.72 ± 0.04 | 743 ± 190 nM | 76 ± 27 | 10 ± 2 nM | CCN(CC)C(=O)[C@H](C)Cc1cc(-c2ccccc2)nc2ccccc12 [(R)-10a, (R)-N,N-Diethyl-2-methyl-3-(2-phenylquinolin-4-yl)propanamide] | fold lower affinity for LAB TSPO than for HAB TSPO [1]: about 76 -fold; fold lower affinity to HAB TSPO than to rat TSPO (human leukocyte HAB TSPO): about 10 -fold
73 ± 36 nM | 2.9 ± 0.1 |  |  |  | CCN(CC)C(=O)[C@@H](C)Cc1cc(-c2ccccc2)nc2ccccc12 [(S)-10a, (S)-N,N-Diethyl-2-methyl-3-(2-phenylquinolin-4-yl)propanamide] | 
0.39 ± 0.04 nM | 4.10 ± 0.05 | 26 ± 5 nM | 10 ± 3 | 2.5 ± 0.6 nM | CC(Sc1cc(-c2ccccc2)nc2ccccc12)C(=O)N(C)c1ccccc1 (stereo not shown) [compound 12, N-Methyl-N-phenyl-2-[(2-phenylquinolin-4-yl)sulfanyl]propanamide] | 
0.19 ± 0.01 nM | 5.62 ± 0.03 | 4 ± 1 nM | 9 ± 3 | 0.44 ± 0.08 nM | CC(Nc1cc(-c2ccccc2)nc2ccccc12)C(=O)N(C)c1ccccc1 (stereo not shown) [compound 14, N-Methyl-N-phenyl-2-[(2-phenylquinolin-4-yl)amino]propanamide] | 
